Values of other authors in patent US5639734A, “Disaccharide inflammation inhibitors and uses thereof” (priority 1994, dated 1997).

Key:
[1] = test system: O-linked glycoprotein synthesis; details: background; cited from earlier work
[2] = test system: sialyl Lewis X (sLe^x) ligands, HL-60 cells; details: background; cited from earlier work

In the case of `CC(=O)NC1C(OCc2ccccc2)OC(CO)C(O)C1O` (centres unmarked) [GalNAcα-0-Bn, GalNAc-O-benzyl], the “Effect on mucin oligosaccharide / O-linked glycoprotein synthesis (in words)” value [1] is given as “stimulates mucin oligosaccharide synthesis and inhibits O-linked glycoprotein synthesis” and the “Expression of sLe^x ligands and adhesion to activated endothelial cells (in words)” value [2] is given as “inhibits the expression of sialyl Lewis X (sLe^x) ligands and adhesion to activated endothelial cells”.
